Reference: US20050163814A1, “Granulated phosphoroamido(di) thioates” (priority 2002, published 2005)
“And” between values parts separate entries of the source, which are not always exact repeats. Equal values may be shown once. Marks after values point to notes of the source that are not given here.

Key:
Type in all cases: physicochemical
[1] = Particle size distribution (sieve openings) of acephate technical
Description: The other half of the Source B sample was analyzed for particle size distribution as received and with the milling according to the invention. FIG. 1 (unmilled) and FIG. 2 (milled) are graphs of the particle size distributions from the milling process. All values are in terms of weight percent of total sample that could pass through the designated sieve opening.

[2] = GE Brightness of acephate powder; settings: bulk powder, reflected light
Description: A sample of technical grade acephate crystals was obtained (Examples 1 and 3) and compared. […] Half of each sample was analyzed for brightness and particle size distribution.
Milling caused a measurable increase in the brightness of the bulk powder sample as measured by reflected light. Such an increase is visually apparent as a noticeably brighter powder when compared side-by-side under the GE Brightness test.

[3] = Crystal dimensions by visual inspection
Excerpt: The unmilled acephate from example 3 was a commercially available technical grade having elongated cylindrical shaped crystals with an average crystal length of 250-500 μm and an average width of 40-100 μm. In contrast, the acephate powder of example 4 was made of substantially cylindrical shaped crystals with an average crystal length of less than about 150 μm and an average width of less than 40 μm.

## COP(=O)(NC(C)=O)SC (stereo not shown) [Ex. 4, acephate]
[1]; Sieve Size 2.3-3.9 μm, listed as Milled
  Summary Particle Size Distribution, Range: 15.26 wt %
[1]; Sieve Size 4.6-16 μm, listed as Milled
  Summary Particle Size Distribution, Range: 41.93 wt %
[1]; Sieve Size 4.6-37 μm, listed as Milled
  Summary Particle Size Distribution, Range: 62.09 wt %
[1]; Sieve Size 4.6-88 μm, listed as Milled
  Summary Particle Size Distribution, Range: 71.47 wt %
[1]; Sieve Size 19-37 μm, listed as Milled
  Summary Particle Size Distribution, Range: 20.16 wt %
[1]; Sieve Size 44-88 μm, listed as Milled
  Summary Particle Size Distribution, Range: 9.39 wt %
[1]; Sieve Size 105-149 μm, listed as Milled
  Summary Particle Size Distribution, Range: 1.38 wt %
[1]; Sieve Size <1.9 μm, listed as Milled
  Summary Particle Size Distribution, Range: 11.73 wt %
[1]; Sieve Size <3.9 μm, listed as Milled
  Summary Particle Size Distribution, Range: 26.99 wt %
[1]; Sieve Size >105 μm, listed as Milled
  Summary Particle Size Distribution, Range: 1.54 wt % and 1.68 wt %
[1]; Sieve Size >177 μm, listed as Milled
  Summary Particle Size Distribution, Range: 0.30 wt %
[1]; Size 1.9 μm, listed as Milled
  Particle Size Distribution: 3.7746 weight percent
[1]; Size 2.3 μm, listed as Milled
  Particle Size Distribution: 1.8957 weight percent
[1]; Size 2.8 μm, listed as Milled
  Particle Size Distribution: 3.9085 weight percent
[1]; Size 3.3 μm, listed as Milled
  Particle Size Distribution: 4.3981 weight percent
[1]; Size 3.9 μm, listed as Milled
  Particle Size Distribution: 5.0539 weight percent
[1]; Size 4.6 μm, listed as Milled
  Particle Size Distribution: 4.0079 weight percent
[1]; Size 5.5 μm, listed as Milled
  Particle Size Distribution: 4.6002 weight percent
[1]; Size 6.5 μm, listed as Milled
  Particle Size Distribution: 5.3931 weight percent
[1]; Size 7.8 μm, listed as Milled
  Particle Size Distribution: 5.6669 weight percent
[1]; Size 9.2 μm, listed as Milled
  Particle Size Distribution: 6.1254 weight percent
[1]; Size 11 μm, listed as Milled
  Particle Size Distribution: 6.0030 weight percent
[1]; Size 13 μm, listed as Milled
  Particle Size Distribution: 5.4418 weight percent
[1]; Size 16 μm, listed as Milled
  Particle Size Distribution: 4.6925 weight percent
[1]; Size 19 μm, listed as Milled
  Particle Size Distribution: 4.8575 weight percent
[1]; Size 22 μm, listed as Milled
  Particle Size Distribution: 4.9085 weight percent
[1]; Size 26 μm, listed as Milled
  Particle Size Distribution: 4.4529 weight percent
[1]; Size 31 μm, listed as Milled
  Particle Size Distribution: 3.4498 weight percent
[1]; Size 37 μm, listed as Milled
  Particle Size Distribution: 2.4873 weight percent
[1]; Size 44 μm, listed as Milled
  Particle Size Distribution: 2.0818 weight percent
[1]; Size 53 μm, listed as Milled
  Particle Size Distribution: 2.3280 weight percent
[1]; Size 63 μm, listed as Milled
  Particle Size Distribution: 2.2067 weight percent
[1]; Size 75 μm, listed as Milled
  Particle Size Distribution: 1.5439 weight percent
[1]; Size 88 μm, listed as Milled
  Particle Size Distribution: 1.2313 weight percent
[1]; Size 105 μm, listed as Milled
  Particle Size Distribution: 0.8371 weight percent
[1]; Size 125 μm, listed as Milled
  Particle Size Distribution: 0.4144 weight percent
[1]; Size 149 μm, listed as Milled
  Particle Size Distribution: 0.1331 weight percent
[1]; Size 177 μm, listed as Milled
  Particle Size Distribution: 0.1199 weight percent
[1]; Size 210 μm, listed as Milled
  Particle Size Distribution: 0.0486 weight percent
[1]; Size 250 μm, listed as Milled
  Particle Size Distribution: 0.132 weight percent
[1]; Size 298 μm, listed as Milled
  Particle Size Distribution: 0.0000 weight percent
[1]; Size <1.9 μm, listed as Milled
  Particle Size Distribution: 7.9543 weight percent
[1]; Size >298 μm, listed as Milled
  Particle Size Distribution: 0.0000 weight percent
[1]; listed as Milled
  mean particle size: 19.1 μm
  median particle size: 10.3 μm
[1]; up to Sieve Size 2.3-3.9 μm, listed as Milled
  Summary Particle Size Distribution, Cumul.: 26.99 wt %
[1]; up to Sieve Size 4.6-16 μm, listed as Milled
  Summary Particle Size Distribution, Cumul.: 68.92 wt %
[1]; up to Sieve Size 19-37 μm, listed as Milled
  Summary Particle Size Distribution, Cumul.: 89.07 wt %
[1]; up to Sieve Size 44-88 μm, listed as Milled
  Summary Particle Size Distribution, Cumul.: 98.46 wt %
[1]; up to Sieve Size 105-149 μm, listed as Milled
  Summary Particle Size Distribution, Cumul.: 99.85 wt %
[1]; up to Sieve Size <1.9 μm, listed as Milled
  Summary Particle Size Distribution, Cumul.: 11.73 wt %
[1]; up to Sieve Size >177 μm, subject to rounding
  Summary Particle Size Distribution, Cumul.: ˜100* wt %
[2]
  GE Brightness: 93.7
[3]; Table 4, listed as Milled
  Crystal dimensions: length: 40-90 μm
  Crystal dimensions: width: 20-25 μm
[3]; length:width, listed as Milled
  Aspect ratio: 2-3.6
[3]; visual inspection
  average crystal length: less than 150 μm
  average width: less than 40 μm
